Experimental data taken from US20120171166A1, “SYNBIOTIC COMBINATION OF PROBIOTIC AND HUMAN MILK OLIGOSACCHARIDES TO PROMOTE GROWTH OF BENEFICIAL MICROBIOTA” (ABBOTT LABORATORIES, priority 2010, published 2012).
Entries after “also recorded” stand apart in the source; their conditions may differ.

Legend:
[1] = system: Bifidobacterium spp. (12 bifidobacteria strains); experiment: Bacterial growth assay (OD600), all bifidobacteria strains tested (Example 37); format: cell-based; settings: for growth / ability to ferment the carbohydrate (OD600): carbohydrate at 1% final concentration in sMRS+cysteine, all bifidobacteria tested
Experimental: (§1) All bifidobacteria strains are initially inoculated from frozen stocks, grown in deMan Rogosa Sharpe (MRS) broth (Difco, Detroit, Mich.) supplemented with 0.5 g/L L-cysteine and incubated at 37° C. for 24 h in an anaerobic chamber (90% N2, 5% CO2 and 5% H2). Subsequently, the cultures are passed twice on a semi-synthetic MRS medium (sMRS)+0.5 g/L L-cysteine which is supplemented with 1% (w/v) filter-sterilized glucose as the sole carbohydrate source. After the 2nd pass, cultures are prepared to use as inoculums for growth assays described below. For bifidobacteria strains, the same procedure is followed except all media are supplemented with 0.5 g/l L-cysteine/HCl.
(§2) After the 2nd pass in sMRS+glucose+cysteine, the cultures are washed once with 10 mL of sterile sMRS+cysteine (no carbohydrate), resuspended in 10 ml of sterile sMRS+cysteine (no carbohydrate) and then used as a 1% inoculum. The carbohydrates are sterilized with a 0.22 micron filter and used at a 1% final concentration. Cell growth is performed in 250 μL of sMRS+cysteine covered with 50 μL of mineral oil in a Bioscreen 100-well Honeycomb plate. Cell growth is monitored by measuring optical density at 600 nm (OD600) using a Bioscreen C Automated Microbiology Growth Curve Analysis System. The plate reader is operated in discontinuous mode, with absorbance readings performed in 30-minute intervals, and preceded by 30-second shaking intervals at maximum speed. Controls consist of inoculated medium lacking carbohydrate. Due to space limitations on the microtitre plate, the carbohydrates are divided into three separate groups: plate A (HMO precursors: glucose, galactose, lactose, NAG, fucose, fructose and sialic acid), plate B (Prebiotics: glucose, Purimune™ GOS, purified Purimune™ GOS, Vivinal® GOS, purified Vivinal® GOS, scFOS and PDX), and plate C (HMOs: glucose, 6′-SL, 3′-SL, 2′-FL, 3′-FL and LNnT). All three plates include a positive control (glucose) and negative control (no carbohydrate).
(§3) The OD600 data for each carbohydrate is corrected by subtracting the OD600 of the basal media (sMRS) from the sample plate for each probiotic. Maximum OD is determined by inspection of the corrected growth data. OD is determined by subtracting the initial corrected OD (time point 0) from the maximum corrected OD. Samples are grown in biologically independent triplicates and the resulting growth kinetic data are expressed as the mean of these replicates.
(§4) For the growth curve plots, OD600 vs. time is first plotted for the bacteria grown on medium lacking carbohydrate (sMRS). For all other carbohydrates, the OD600 data is corrected by subtracting the OD600 of sMRS.

B. breve ATCC 15700 = experiment: Bacterial growth assay (OD600), B. breve ATCC 15700; format: cell-based, Bifidobacterium breve; settings: 1% carbohydrate in sMRS+cysteine
Experimental: as §1
After the 2nd pass in sMRS+glucose+cysteine, the cultures are washed once with 10 mL of sterile sMRS+cysteine (no carbohydrate), resuspended in 10 ml of sterile sMRS+cysteine (no carbohydrate) and then used as a 1% inoculum. The carbohydrates are sterilized with a 0.22 micron filter and used at a 1% final concentration. […] Cell growth is monitored by measuring optical density at 600 nm (OD600) using a Bioscreen C Automated Microbiology Growth Curve Analysis System. The plate reader is operated in discontinuous mode, with absorbance readings performed in 30-minute intervals, and preceded by 30-second shaking intervals at maximum speed. […]

B. infantis ATCC 15697 = experiment: Bacterial growth assay (OD600), B. infantis ATCC 15697; format: cell-based, Bifidobacterium infantis; settings: 1% carbohydrate in sMRS+cysteine
Experimental: as §1, §2, §3, §4

B. infantis M-63 = experiment: Bacterial growth assay (OD600), B. infantis M-63; format: cell-based, Bifidobacterium infantis; settings: 1% carbohydrate in sMRS+cysteine
Experimental: as §1, §2, §3, §4

[2] = system: infant fecal inoculum (diluted feces); experiment: In vitro fermentation model simulating large bowel fermentation with infant fecal inoculum (Example 36); format: cell-based, human infant; settings: for pH change from baseline: at 3, 6, and 12 h after inoculation, comparison among substrates (P<0.0001)
enteric nerve cells = experiment: Peristalsis model using luminally perfused mouse colon (Example 35); settings: colon muscle perfused at 1, 0.5 and 0.1 mg/mL for 15 minutes; for stimulation of enteric nerve cells: without involving gut microbiota and/or their metabolites
Experimental: In this Example, the effect of 2′-fucosyllactose (2′FL) or 3′ fucosyllactose (3′FL) on stimulating enteric nerve cells in the gastrointestinal tract of rodents is analyzed.
Specifically, a peristalsis model using luminally perfused mouse colon is used to test the stimulation effect of 2′FL or 3′FL on enteric nerve cells. Colon muscle is perfused with 2′FL or 3′FL, at concentrations of 1 mg/mL, 0.5 mg/mL, and 0.1 mg/mL, for 15 minutes. The frequency and amplitude of contractions of the muscle is analyzed.

Row | Compound | growth / ability to ferment the carbohydrate (OD600) [1] | growth / ability to ferment the carbohydrate (OD600) (B. infantis ATCC 15697) | growth / ability to ferment the carbohydrate (OD600) (B. infantis M-63) | fermentation rate [2] | fermentation rate class (rapidly-, medium-, slowly-fermented oligosaccharide) [2] | also measured
1 | O=C(CO)[C@@H](O)[C@H](O)[C@H](O)CO [fructose, D-Fructose] | majority of bifidobacteria is able to ferment |  |  |  |  | 
2 | OC[C@H]1O[C@@H](O[C@H]2[C@H](O)[C@@H](O)[C@@H](O)O[C@@H]2CO)[C@H](O)[C@@H](O)[C@H]1O [lactose, α-Lactose] |  |  |  |  |  | growth on the carbohydrate (OD600) ([1]; 1% carbohydrate, bifidobacteria which are not able to ferment galactose): reduced growth
3 | CC(=O)N[C@H]1[C@H](O[C@H]2[C@@H](O)[C@@H](CO)O[C@@H](O[C@H]3[C@H](O)[C@@H](O)C(O)O[C@@H]3CO)[C@@H]2O)O[C@H](CO)[C@@H](O[C@@H]2O[C@H](CO)[C@H](O)[C@H](O)[C@H]2O)[C@@H]1O (mixture of isomers) [LNnT, Lacto-N-Neotetraose] |  | grow well; also recorded: able to ferment | grow well; also recorded: able to ferment | about 4,488 μg/g of dry matter/hour |  | growth / ability to ferment the carbohydrate (OD600) (B. breve ATCC 15700): grow well; also recorded: able to ferment; pH change from baseline [2]: greatest
4 | C[C@H](O)[C@@H](O)[C@@H](O)[C@H](O)C=O [L-fucose, L-(−) Fucose] | None of the bifidobacteria are able to ferment | not able to ferment | not able to ferment |  |  | 
5 | CC(=O)N[C@H]1C(O)O[C@H](CO)[C@@H](O)[C@@H]1O (stereo partly drawn) [NAG, N-acetyl-D-glucosamine] | Only B. breve ATCC 15700 is able to ferment |  |  |  |  | growth / ability to ferment the carbohydrate (OD600) (B. breve ATCC 15700): able to ferment
6 | CC(=O)N[C@H]1[C@H]([C@H](O)[C@H](O)CO)O[C@@](OC[C@H]2O[C@@H](O[C@H]3[C@H](O)[C@@H](O)[C@H](O)O[C@@H]3CO)[C@H](O)[C@@H](O)[C@H]2O)(C(=O)O)C[C@@H]1O [6′SL, 6′-sialyllactose] | only B. infantis ATCC 15697 and B. infantis M-63 are able to ferment | able to ferment | able to ferment | about 1,809 μg/g of dry matter/hour | Medium-fermented | total SCFA production ([2]; 12 h of fermentation): greater (P<0.05) for the 6′SL and GOS substrates compared to 2′FL; total SCFA production ([2]; after 3 and 6 h of fermentation): lower (P<0.05) with 6′SL compared to GOS
7 | CC(=O)N[C@H]1[C@H]([C@H](O)[C@H](O)CO)O[C@@](O[C@H]2[C@@H](O)[C@@H](CO)O[C@@H](O[C@H]3[C@H](O)[C@@H](O)C(O)O[C@@H]3CO)[C@@H]2O)(C(=O)O)C[C@@H]1O (stereo partly shown) [3′SL, 3′-sialyllactose] | only B. infantis ATCC 15697 and B. infantis M-63 are able to ferment | able to ferment | able to ferment |  | Medium-fermented | 
8 | 3′-fucosyllactose [3′FL] | only B. infantis ATCC 15697 and B. infantis M-63 are able to ferment | able to ferment | able to ferment |  | Medium-fermented | amplitude of contraction (enteric nerve cells): reduced consistently and in a dose response fashion; effectiveness on gut motility, 3′FL compared with 2′FL (enteric nerve cells): more effective than 2′FL; frequency of contraction (enteric nerve cells): reduced consistently and in a dose response fashion; stimulation of enteric nerve cells (enteric nerve cells): direct stimulation of nerve cells
9 | 2′-fucosyllactose [2′FL] | only B. infantis ATCC 15697 and B. infantis M-63 are able to ferment | able to ferment | able to ferment | about 4,872 μg/g of dry matter/hour |  | amplitude of contraction (enteric nerve cells): reduced consistently and in a dose response fashion; frequency of contraction (enteric nerve cells): reduced consistently and in a dose response fashion; stimulation of enteric nerve cells (enteric nerve cells): direct stimulation of nerve cells; stimulation of enteric nerve cells (enteric nerve cells; listed as 2′-fucosyllactose): stimulates enteric nerve cells; pH change from baseline [2]: greatest
10 | CC(=O)N[C@H]1[C@H]([C@H](O)[C@H](O)CO)OC(O)(C(=O)O)C[C@@H]1O (stereo partly shown) [sialic acid, N-acetylneuraminic acid] | None of the bifidobacteria are able to ferment | not able to ferment | not able to ferment |  |  | 
